Tests used:
carmine spider mite = assay: bioactivity test against carmine spider mite, airbrush spray; format: in vivo; settings: for pest or weed control at 10 µg/mL: 10 mg/L; for pest or weed control at 10 µg/mL / pest or weed control at 100 µg/mL / pest or weed control at 600 µg/mL: read-out: Insecticidal activity against carmine spider mite (% ); for pest or weed control at 100 µg/mL: 100 mg/L
Summary of the method: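 Broadbean seedlings infested with adult mites were sprayed with compound (acetone/methanol stock diluted in 0.1% Tween 80 water) by airbrush at 0.7 kg/cm^2, 0.5 ml. Three replicates were run. Mortality was scored after 72 hrs.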

rice blast = assay: microbe, parasite or virus in culture; format: cell-based; settings: Pyricularia oryzae; for inhibition at 25 ppm: read-out: inhibition rate against rice blast, 25 ppm, in vitro; for inhibition at 8.3 ppm: read-out: inhibition rate against rice blast, 8.3 ppm, in vitro
corn rust = assay: protectant activity in vivo against corn rust; settings: Zea mays, 168 h; for pest or weed control at 25 ppm: read-out: protectant activity against corn rust in vivo, 25 ppm; for pest or weed control at 100 ppm: read-out: protectant activity against corn rust in vivo, 100 ppm; for pest or weed control at 400 ppm: read-out: protectant activity against corn rust in vivo, 400 ppm; for pest or weed control at 6.25 µg/mL: read-out: control effect against corn rust (%), 6.25 mg/L; for pest or weed control at 6.25 µg/mL / pest or weed control at 25 µg/mL / pest or weed control at 100 µg/mL / pest or weed control at 400 µg/mL: protectant activity; for pest or weed control at 25 µg/mL: read-out: control effect against corn rust (%), 25 mg/L; for pest or weed control at 100 µg/mL: read-out: control effect against corn rust (%), 100 mg/L; for pest or weed control at 400 µg/mL: read-out: control effect against corn rust (%), 400 mg/L
cucumber gray mold = assay: fungicidal activity in vitro (inhibition rate) against cucumber gray mold; format: cell-based; settings: 25 ppm, in vitro; read-out: inhibition rate against cucumber gray mold
wheat powdery mildew = assay: protectant activity in vivo against wheat powdery mildew; settings: for pest or weed control at 400 ppm / pest or weed control at 400 µg/mL / pest or weed control at 6.25 µg/mL / pest or weed control at 25 µg/mL / pest or weed control at 100 µg/mL: Triticum aestivum, 168 h; for pest or weed control at 400 ppm: read-out: protectant activity against wheat powdery mildew in vivo, 400 ppm; for pest or weed control at 400 µg/mL: read-out: control effect against wheat powdery mildew (%), 400 mg/L; for pest or weed control at 6.25 µg/mL: read-out: control effect against wheat powdery mildew (%), 6.25 mg/L; for pest or weed control at 25 µg/mL: read-out: control effect against wheat powdery mildew (%), 25 mg/L; for pest or weed control at 100 µg/mL: read-out: control effect against wheat powdery mildew (%), 100 mg/L
cucumber downy mildew = assay: protectant activity in vivo against cucumber downy mildew; settings: for pest or weed control at 100 ppm: read-out: protectant activity against cucumber downy mildew in vivo, 100 ppm; for pest or weed control at 400 ppm: read-out: protectant activity against cucumber downy mildew in vivo, 400 ppm
[1] = tested on: Green peach aphids (Myzus Persicae Sulzer); assay: bioactivity test against green peach aphid, airbrush foliar spray; format: in vivo; settings: for pest or weed control at 2.5 µg/mL: 2.5 mg/L; for pest or weed control at 2.5 µg/mL / pest or weed control at 5 µg/mL / pest or weed control at 10 µg/mL / pest or weed control at 100 µg/mL / pest or weed control at 600 µg/mL: read-out: Insecticidal activity against peach aphid (%); for pest or weed control at 5 µg/mL: 5 mg/L; for pest or weed control at 10 µg/mL: 10 mg/L; for pest or weed control at 100 µg/mL: 100 mg/L
Summary of the method: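 Death rate was scored at 48 hrs, held at 25±1 C and 60±5% RH, following airbrush foliar spray (0.5 mL, 10 psi) onto cabbage leaf discs bearing about 15-30 aphids. Test solutions: compound dissolved in 1:1 acetone:methanol, brought to concentration with 0.1% tween 80 water.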

armyworm = assay: bioactivity test against armyworm, airbrush spray; format: in vivo
Diamond back moth = assay: insecticidal activity against diamond back moth, airbrush spray; format: in vivo; settings: for pest or weed control at 10 µg/mL: 10 mg/L; for pest or weed control at 100 µg/mL: 100 mg/L
Summary of the method: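 Airbrush leaf-disc spray test: both faces of 2 cm cabbage discs received 0.5 ml of test solution at 0.7 kg/cm^2. Solutions were made in acetone:methanol (1:1) and brought to concentration with 0.1% Tween 80 in water. Ten second-instar larvae per disc, triplicates, were held at 25° C and 60˜70% R.H., with mortality recorded at 72 hrs.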

[2] = Tetranychus cinnabarinus, 72 h, contrastive test
[3] = Tetranychus cinnabarinus, 72 h, 600 mg/L, contrastive test
[4] = Myzus persicae, foliar, 48 h, contrastive test
[5] = Myzus persicae, foliar, 48 h, 600 mg/L, contrastive test
[6] = Myzus persicae, foliar, 48 h, death rate after 48 hrs
[7] = 72 h, 600 mg/L, read-out: Insecticidal activity against armyworm (%)

| SMILES | pest or weed control at 10 µg/mL (carmine spider mite; [2]) | pest or weed control at 100 µg/mL (carmine spider mite; [2]) | pest or weed control at 600 µg/mL (carmine spider mite; [3]) | inhibition at 25 ppm (rice blast) | inhibition at 25 ppm (cucumber gray mold) | pest or weed control at 2.5 µg/mL [1, 4] | pest or weed control at 5 µg/mL [1, 4] | pest or weed control at 10 µg/mL [1, 4] | pest or weed control at 100 µg/mL [1, 4] | pest or weed control at 600 µg/mL [1, 5] | pest or weed control at 600 µg/mL (Diamond back moth; 72 h, 600 mg/L) | inhibition at 8.3 ppm (rice blast) | pest or weed control at 6.25 µg/mL (corn rust) | pest or weed control at 25 µg/mL (corn rust) | pest or weed control at 100 µg/mL (corn rust) | pest or weed control at 400 µg/mL (corn rust) | pest or weed control at 600 µg/mL (armyworm; [7]) | pest or weed control at 400 µg/mL (wheat powdery mildew; protectant activity) | pest or weed control at 100 µg/mL (wheat powdery mildew; protectant activity) | other results |
| --- | --- | --- | --- | --- | --- | --- | --- | --- | --- | --- | --- | --- | --- | --- | --- | --- | --- | --- | --- | --- |
| Cc1ncnc(NCCc2ccc(Oc3ccc(C(F)(F)F)cc3)cc2)c1Cl [II-69] | 90% | 100% | 100% | 80 to 99% | 80 to 99% | 81% | 100% | 100% | 100% | 100% | – | – | – | – | – | – | – | – | – | pest or weed control at 10 ppm (carmine spider mite; Tetranychus cinnabarinus, 72 h, 10 ppm, mortality after 72 hrs): 80 to 99%; pest or weed control at 100 ppm (carmine spider mite; Tetranychus cinnabarinus, 72 h, 100 ppm, mortality after 72 hrs): 100%; pest or weed control at 600 ppm (carmine spider mite; Tetranychus cinnabarinus, 72 h, 600 ppm, mortality after 72 hrs): 100%; pest or weed control at 25 ppm (corn rust): 100%; pest or weed control at 100 ppm (corn rust): 100%; pest or weed control at 400 ppm (corn rust): 100%; pest or weed control at 400 ppm (wheat powdery mildew): 100%; pest or weed control at 100 ppm (cucumber downy mildew; Cucumis sativus, 168 h): 80 to 99%; pest or weed control at 400 ppm (cucumber downy mildew; Cucumis sativus, 168 h): 100%; pest or weed control at 2.5 ppm ([1]; Myzus persicae, foliar, 48 h, 2.5 ppm, death rate after 48 hrs): 80 to 99%; pest or weed control at 5 ppm ([1]; Myzus persicae, foliar, 48 h, 5 ppm, death rate after 48 hrs): 100%; pest or weed control at 10 ppm ([1]; Myzus persicae, foliar, 48 h, 10 ppm, death rate after 48 hrs): 100%; pest or weed control at 100 ppm ([1]; Myzus persicae, foliar, 48 h, 100 ppm, death rate after 48 hrs): 100%; pest or weed control at 600 ppm [1, 6]: 100%; pest or weed control at 100 ppm (armyworm; 72 h, 100 ppm, mortality after 72 h): 80 to 99%; pest or weed control at 600 ppm (armyworm; 72 h, 600 ppm, mortality after 72 h): 100% |
| Cc1ncnc(NC(C)c2ccc(Oc3ccc(C(F)(F)F)cc3)cc2)c1Cl (stereo not drawn) [CK46, reference compound] | 28% | 63% | 100% | < 50% | 0% | – | – | 0% | 5% | 100% | 100% | 0% | 0% | 0% | 0% | 40% | 71% | – | – | pest or weed control at 10 µg/mL (Diamond back moth; 72 h): 0%; pest or weed control at 100 µg/mL (Diamond back moth; 72 h): 10%; pest or weed control at 10 µg/mL (armyworm; 72 h, 10 mg/L, read-out: Insecticidal activity against armyworm (%)): 0%; pest or weed control at 100 µg/mL (armyworm; 72 h, 100 mg/L, read-out: Insecticidal activity against armyworm (%)): 0% |
| FC(F)c1ncnc(NCCc2ccc(Oc3ccc(Cl)cc3Cl)nc2)c1Cl [III-622] | – | – | – | 80 to 99% | 80 to 99% | – | – | – | – | – | – | – | – | – | – | – | – | – | – | pest or weed control at 600 ppm (Diamond back moth; 72 h, 600 ppm, mortality after 72 hrs, read-out: control (test results against diamond back moth)): 100%; pest or weed control at 6.25 ppm (corn rust; read-out: protectant activity against corn rust in vivo, 6.25 ppm): 80 to 99%; pest or weed control at 25 ppm (corn rust): 100%; pest or weed control at 100 ppm (corn rust): 100%; pest or weed control at 400 ppm (corn rust): 100%; pest or weed control at 400 ppm (wheat powdery mildew): 100%; pest or weed control at 6.25 µg/mL (cucumber downy mildew; Cucumis sativus, 168 h, read-out: control effect against cucumber downy mildew (%), 6.25 mg/L, protectant activity): 98%; pest or weed control at 12.5 µg/mL (cucumber downy mildew; Cucumis sativus, 168 h, read-out: control effect against cucumber downy mildew (%), 12.5 mg/L, protectant activity): 100%; pest or weed control at 25 µg/mL (cucumber downy mildew; Cucumis sativus, 168 h, read-out: control effect against cucumber downy mildew (%), 25 mg/L, protectant activity): 100%; pest or weed control at 50 µg/mL (cucumber downy mildew; Cucumis sativus, 168 h, read-out: control effect against cucumber downy mildew (%), 50 mg/L, protectant activity): 100%; pest or weed control at 100 µg/mL (cucumber downy mildew; Cucumis sativus, 168 h, read-out: control effect against cucumber downy mildew (%), 100 mg/L, protectant activity): 100%; pest or weed control at 400 µg/mL (cucumber downy mildew; Cucumis sativus, 168 h, read-out: control effect against cucumber downy mildew (%), 400 mg/L, protectant activity): 100%; pest or weed control at 6.25 ppm (cucumber downy mildew; Cucumis sativus, 168 h, read-out: protectant activity against cucumber downy mildew in vivo, 6.25 ppm): 80 to 99%; pest or weed control at 12.5 ppm (cucumber downy mildew; Cucumis sativus, 168 h, read-out: protectant activity against cucumber downy mildew in vivo, 12.5 ppm): 100%; pest or weed control at 25 ppm (cucumber downy mildew; Cucumis sativus, 168 h, read-out: protectant activity against cucumber downy mildew in vivo, 25 ppm): 100%; pest or weed control at 50 ppm (cucumber downy mildew; Cucumis sativus, 168 h, read-out: protectant activity against cucumber downy mildew in vivo, 50 ppm): 100%; pest or weed control at 100 ppm (cucumber downy mildew; Cucumis sativus, 168 h): 100%; pest or weed control at 400 ppm (cucumber downy mildew; Cucumis sativus, 168 h): 100%; pest or weed control at 600 ppm [1, 6]: 100% |
| CC(Cl)c1ncnc(NCCc2ccc(Oc3ncc(C(F)(F)F)cc3Cl)cc2)c1Cl (stereo not drawn) [CK21, reference compound] | – | – | 0% | 0% | < 50% | 0% | 19% | 35% | 98% | 100% | 80% | – | – | – | – | 85% | 0% | 0% | – | pest or weed control at 10 µg/mL (Diamond back moth; 72 h): 10%; pest or weed control at 100 µg/mL (Diamond back moth; 72 h): 25% |
| Cc1ncnc(NCc2ccc(Oc3ccc(C(F)(F)F)cc3Cl)cc2)c1Cl [CK51, reference compound] | – | – | – | – | 0% | – | – | 0% | 50% | 100% | 57% | 0% | 0% | 0% | 20% | 80% | 43% | 100% | 80% | pest or weed control at 6.25 µg/mL (wheat powdery mildew; protectant activity): 0%; pest or weed control at 25 µg/mL (wheat powdery mildew; protectant activity): 40% |
| CC(Cl)c1ncnc(NCCc2ccc(O)cc2)c1Cl (stereo not drawn) [CK4, reference compound] | – | – | 75% | < 50% | 0% | 0% | 41% | 64% | 100% | 100% | 0% | – | – | – | 0% | 0% | 40% | 40% | 0% | – |
| Cc1ncnc(NCc2ccc(Oc3ncc(C(F)(F)F)cc3Cl)cc2)c1Cl [CK32, reference compound] | 0% | 22% | – | < 50% | 0% | – | – | – | – | – | – | – | – | – | – | – | – | – | – | Insecticidal activity against carmine spider mite (% ) (carmine spider mite; 600 mg/L, contrastive test): 91%; Insecticidal activity against diamond back moth (%) (Diamond back moth; 600 mg/L): 0%; control effect against wheat powdery mildew (%) (wheat powdery mildew; 400 mg/L, protectant activity): 0%; control effect against cucumber downy mildew (%) (cucumber downy mildew; 400 mg/L, protectant activity): 60%; Insecticidal activity against peach aphid (%) ([1]; 600 mg/L, contrastive test): 0%; Insecticidal activity against armyworm (%) (armyworm; 600 mg/L): 0% |
| CCc1ncnc(NCc2ccc(Oc3ccc(C(F)(F)F)cc3Cl)cc2)c1Cl [CK48, reference compound] | – | – | – | < 50% | 0% | – | – | 0% | 87% | 100% | 40% | 0% | 0% | 0% | 20% | 60% | 50% | 30% | 0% | pest or weed control at 6.25 µg/mL (wheat powdery mildew; protectant activity): 0%; pest or weed control at 25 µg/mL (wheat powdery mildew; protectant activity): 0% |
